The nature of the series: Dissociation constant was reported. The series is classed as physicochemical.

In ChEMBL document CHEMBL1121747, “Side-chain effects on phenothiazine cation radical reactions” (J Med Chem, 1981) one finds pKa data, which are given here for one compound.

A word on the pKa: it is the pH at which an ionisable group is half protonated. Low readings indicate a group that gives up its proton readily, high ones a group that holds its proton tightly. `CN(C)CCN1c2ccccc2Sc2ccc(Cl)cc21` [CHOLRPHENETHAZINE] showed a pKa of 9.1.
